From publication doi:10.1101/2020.10.13.334797v1 (biorxiv, 2020)

Legend:
Type in all cases: cell-based
[1] = target: hTRPV4 (full-length; hTRPV4WT) (Homo sapiens, UniProt Q9HBA0, L584M); assay: calcium flux
[2] = target: hTRPV4 (full-length; hTRPV4WT) (Homo sapiens, UniProt Q9HBA0, N474A); assay: calcium flux
[3] = target: hTRPV4 (full-length; hTRPV4WT) (Homo sapiens, UniProt Q9HBA0, R594A); assay: calcium flux
[4] = target: hTRPV4 (full-length; hTRPV4WT) (Homo sapiens, UniProt Q9HBA0, Y556A); assay: calcium flux
Sequence of hTRPV4 (full-length; hTRPV4WT) (Homo sapiens, UniProt Q9HBA0, Y556A) (Q9HBA0 whole entry Y556A): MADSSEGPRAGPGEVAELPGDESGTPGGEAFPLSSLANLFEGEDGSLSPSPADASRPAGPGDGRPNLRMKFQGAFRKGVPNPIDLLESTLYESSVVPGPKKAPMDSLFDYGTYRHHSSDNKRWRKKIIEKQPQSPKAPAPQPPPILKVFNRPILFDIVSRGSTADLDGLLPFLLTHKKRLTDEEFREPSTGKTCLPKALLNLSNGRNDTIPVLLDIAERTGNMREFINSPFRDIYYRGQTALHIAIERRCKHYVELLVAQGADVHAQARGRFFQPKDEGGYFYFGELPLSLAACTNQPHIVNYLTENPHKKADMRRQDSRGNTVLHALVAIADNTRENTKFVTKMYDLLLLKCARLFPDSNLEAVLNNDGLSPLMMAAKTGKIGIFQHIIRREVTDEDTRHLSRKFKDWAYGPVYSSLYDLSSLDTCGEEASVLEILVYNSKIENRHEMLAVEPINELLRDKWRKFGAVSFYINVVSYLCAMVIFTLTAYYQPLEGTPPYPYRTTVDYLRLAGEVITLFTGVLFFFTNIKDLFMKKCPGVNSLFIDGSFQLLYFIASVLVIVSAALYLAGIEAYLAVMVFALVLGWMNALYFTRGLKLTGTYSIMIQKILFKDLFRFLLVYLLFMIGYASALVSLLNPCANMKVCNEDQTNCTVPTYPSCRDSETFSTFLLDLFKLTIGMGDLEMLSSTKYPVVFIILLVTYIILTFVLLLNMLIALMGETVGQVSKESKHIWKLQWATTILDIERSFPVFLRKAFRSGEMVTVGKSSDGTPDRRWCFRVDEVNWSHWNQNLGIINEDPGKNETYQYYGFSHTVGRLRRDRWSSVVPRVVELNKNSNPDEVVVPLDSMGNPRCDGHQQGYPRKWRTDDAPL

[5] = target: hTRPV4 (full-length; hTRPV4WT) (Homo sapiens, UniProt Q9HBA0); assay: calcium flux
Sequence of hTRPV4 (full-length; hTRPV4WT) (Homo sapiens, UniProt Q9HBA0) (Q9HBA0 whole entry): as the sequence (Q9HBA0 whole entry Y556A) above, with A556Y counted along it

[6] = target: hTRPV4 (full-length; hTRPV4WT) (Homo sapiens, UniProt Q9HBA0, N474Q); assay: calcium flux
Sequence of hTRPV4 (full-length; hTRPV4WT) (Homo sapiens, UniProt Q9HBA0, N474Q) (Q9HBA0 whole entry N474Q): as the sequence (Q9HBA0 whole entry Y556A) above, with N474Q, A556Y counted along it

[7] = target: hTRPV4 (full-length; hTRPV4WT) (Homo sapiens, UniProt Q9HBA0, K535A); assay: calcium flux
Sequence of hTRPV4 (full-length; hTRPV4WT) (Homo sapiens, UniProt Q9HBA0, K535A) (Q9HBA0 whole entry K535A): as the sequence (Q9HBA0 whole entry Y556A) above, with K535A, A556Y counted along it

[8] = target: hTRPV4 (full-length; hTRPV4WT) (Homo sapiens, UniProt Q9HBA0, S548V); assay: calcium flux
Sequence of hTRPV4 (full-length; hTRPV4WT) (Homo sapiens, UniProt Q9HBA0, S548V) (Q9HBA0 whole entry S548V): as the sequence (Q9HBA0 whole entry Y556A) above, with S548V, A556Y counted along it

[9] = target: hTRPV4 (full-length; hTRPV4WT) (Homo sapiens, UniProt Q9HBA0, F549A); assay: calcium flux
Sequence of hTRPV4 (full-length; hTRPV4WT) (Homo sapiens, UniProt Q9HBA0, F549A) (Q9HBA0 whole entry F549A): as the sequence (Q9HBA0 whole entry Y556A) above, with F549A, A556Y counted along it

[10] = target: hTRPV4 (full-length; hTRPV4WT) (Homo sapiens, UniProt Q9HBA0, Q550A); assay: calcium flux
Sequence of hTRPV4 (full-length; hTRPV4WT) (Homo sapiens, UniProt Q9HBA0, Q550A) (Q9HBA0 whole entry Q550A, the tested form may be a part): as the sequence (Q9HBA0 whole entry Y556A) above, with Q550A, A556Y counted along it

[11] = target: truncated hTRPV4 (cryo-EM construct, residues 148-787 N651D) (Homo sapiens, UniProt Q9HBA0, N651D); assay: two-electrode voltage clamp, Xenopus oocytes
Sequence of truncated hTRPV4 (cryo-EM construct, residues 148-787 N651D) (Q9HBA0 148-787 N651D): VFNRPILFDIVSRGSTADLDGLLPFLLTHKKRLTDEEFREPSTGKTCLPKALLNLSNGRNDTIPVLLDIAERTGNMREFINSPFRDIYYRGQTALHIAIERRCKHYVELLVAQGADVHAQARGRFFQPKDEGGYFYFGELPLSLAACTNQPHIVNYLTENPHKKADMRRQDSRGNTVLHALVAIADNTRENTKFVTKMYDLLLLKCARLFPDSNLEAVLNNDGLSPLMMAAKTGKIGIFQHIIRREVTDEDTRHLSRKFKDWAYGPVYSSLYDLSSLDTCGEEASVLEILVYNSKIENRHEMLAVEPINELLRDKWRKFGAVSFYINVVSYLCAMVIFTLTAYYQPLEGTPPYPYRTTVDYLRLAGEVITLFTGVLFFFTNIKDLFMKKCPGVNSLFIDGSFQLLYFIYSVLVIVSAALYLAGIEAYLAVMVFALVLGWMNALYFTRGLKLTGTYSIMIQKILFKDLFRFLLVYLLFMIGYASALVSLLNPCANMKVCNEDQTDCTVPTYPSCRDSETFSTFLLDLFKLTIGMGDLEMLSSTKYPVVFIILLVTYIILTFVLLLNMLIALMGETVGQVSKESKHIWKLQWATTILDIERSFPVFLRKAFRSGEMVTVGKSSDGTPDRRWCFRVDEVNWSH

Sequence of hTRPV4 (full-length; hTRPV4WT) (Homo sapiens, UniProt Q9HBA0, N474A) (Q9HBA0 whole entry N474A): as the sequence (Q9HBA0 whole entry Y556A) above, with N474A, A556Y counted along it
Sequence of hTRPV4 (full-length; hTRPV4WT) (Homo sapiens, UniProt Q9HBA0, R594A) (Q9HBA0 whole entry R594A): as the sequence (Q9HBA0 whole entry Y556A) above, with A556Y, R594A counted along it
Sequence of hTRPV4 (full-length; hTRPV4WT) (Homo sapiens, UniProt Q9HBA0, L584M) (Q9HBA0 whole entry L584M): as the sequence (Q9HBA0 whole entry Y556A) above, with A556Y, L584M counted along it

With CC(C)C[C@H](NC(=O)c1cc2ccccc2s1)C(=O)N1CCN(C(=O)[C@H](CO)NS(=O)(=O)c2ccc(Cl)cc2Cl)CC1 [GSK1016790A] the EC50 [1] was 4 ± 1.7 nM, the EC50 [2] was 540 ± 150 nM and the EC50 [3] was over 25000 nM. For the same compound, the EC50 [4] was 9.6 ± 4.3 nM, the EC50 [5] was 1.21 ± 0.033 nM and the EC50 [6] was over 25000 nM. The EC50 [7] was 7.4 ± 2.9 nM, the EC50 [8] was 110 ± 18 nM and the EC50 [9] was 9.8 ± 4.1 nM. For the same compound, the EC50 [10] was 27 ± 13 nM and the EC50 [11] was 8430 nM.
